Results on 46 compounds are retold here after patent US8685981B2, “Cyclic compound having hetero atom” (Daiichi Sankyo Company, Limited, priority 2009, dated 2014).

The first experiment has as its system female F344 rats. Description: Effect on bone density (oophorectomy or sham surgery, femur DXA). The class given is in vivo. As to conditions: 3 mg/kg, orally once a day, six days a week, six to eight weeks, female F344 rats after oophorectomy or sham surgery. On the procedure: Eight to 12 week old female F344 rats were purchased from Charles River Laboratories and used in the following experiment. Rats were anesthetized with an intraperitoneal administration of 40 mg/kg of Somnopentyl (Kyoritsu Seiyaku Corporation), and then oophorectomy or sham surgery was performed. From the day after surgery, a suspension of the test compound in a 0.5% methyl cellulose solution (Wako pure chemical industries, Ltd. Cat. No. 133-14255) was orally administered once a day, six days a week. Six to eight weeks after administration, the rats were euthanized by removal of whole blood from the lower abdominal aorta under Somnopentyl anesthesia, and the left and right femur was excised.
After removal of soft tissues, the bone density of the femur thus excised was measured by a DXA apparatus, DCS-600R (Aloka Co., Ltd.). The bone density was assessed in the whole femur as well as in three equal sections of the whole femur, namely the proximal end, the shaft, and the distal end.
For the compound `NC(=O)c1ccc2cncc(N3CCC(OCCO[C@@H]4CCOC4)CC3)c2n1` [Example 3, 8-(4-{2-[(3R)-Tetrahydrofuran-3-yloxy]ethoxy}piperidin-1-yl)-1,6-naphthyridine-2-carboxamide], the “bone density of the femur” value is recorded as “significantly increased”.

Consider `NC(=O)c1ccc2cncc(N3CCC(OCCO[C@H]4CCOC4)CC3)c2n1` [Example 4, 8-(4-{2-[(3S)-Tetrahydrofuran-3-yloxy]ethoxy}piperidin-1-yl)-1,6-naphthyridine-2-carboxamide], for which the “bone density of the femur” value is “significantly increased”.

Take `NC(=O)c1ccc2cncc(N3CCCCC3)c2n1` [Example 12, 8-Piperidin-1-yl-1,6-naphthyridine-2-carboxamide]: the “bone density of the femur” value is “significantly increased”.

Consider `NC(=O)c1ccc2cncc(N3CCN(c4ccccc4)CC3)c2c1` [Example 15, 4-(4-Phenylpiperazin-1-yl)isoquinoline-6-carboxamide], for which the “bone density of the femur” value is listed as “significantly increased”.

`Cl.NC(=O)c1ccc2cncc(N3CCC(OCCOC4CCOCC4)CC3)c2n1` [Example 7, 8-{4-[2-(Tetrahydro-2H-pyran-4-yloxy)ethoxy]piperidin-1-yl}-1,6-naphthyridine-2-carboxamide hydrochloride]: the “bone density of the femur” value is “significantly increased”.

The next experiment has as its system ST2 cells, murine bone marrow-derived stromal cells. Description: Osteoblast differentiation test (alkaline phosphatase activity). The class given is cell-based. As to conditions: Mus musculus, ST-2, 96 h, at 0.03 μg/mL, four days of culturing, control group (0.1% DMSO) set at 100%, read-out: increase (%) in alkaline phosphatase activity. On the procedure: ST2 cells, murine bone marrow-derived stromal cells, (obtained from RIKEN) were used.
In this test, α-MEM media (obtained from GIBCO BRL Cat. No. 10370-021) containing 10% (v/v) of inactivated calf serum (obtained from Hyclone Laboratories, Inc.) and 1% (v/v) of Penicillin-Streptomycin Liquid (obtained from GIBCO BRL Cat. No. 15140-122) (hereinbelow, abbreviated as 10%-FBS-αMEM) were used. In this test, all culturing was performed in a CO2 incubator (37° C., 95% humidity, 5% CO2).
The aforementioned cells were detached with 2 mL of a 0.25% trypsin solution (obtained from GIBCO BRL Cat. No. 15050-065) and dispersed in 10 mL of 10%-FBS-αMEM. Subsequently, the cells were collected by centrifugation (25° C., 800 rpm, five minutes). Then, a cell suspension containing 40000 of the cells/mL of 10%-FBS-αMEM was prepared. The cell suspension was then dispensed into 96-well plates (the product of Falcon), 100 μL per well, at a density of 4000 cells/well, followed by culturing for 24 hours. To the wells except for the below-described well containing a control group, the compound was dispensed at final concentrations of 0.01, 0.03, 0.1, and 0.3 μg/ml. To the well of a control group, DMSO was dispensed at a final concentration of 0.1% (v/v). After four days of culturing, the activity of alkaline phosphatase (ALP) was measured in each group.
The measurement of ALP activity was performed as follows. That is, the medium in each well of the culture plates was completely removed. Each well was then washed by dispensing 100 μL of Dulbecco's phosphate buffer (obtained from GIBCO BRL Cat. No. 14190-144) and then removing it. A cell lysate solution containing 10 mM MgCl2 and 2% (v/v) TritonX-100 (Sigma) was prepared and dispensed at 50 μL/well, followed by stirring at room temperature for five minutes. An ALP substrate solution containing 50 mM diethanolamine (Wako pure chemical industries, Ltd., Cat. No. 099-03112) and 20 mM p-nitrophenyl phosphate (Wako pure chemical industries, Ltd., Cat. No. 147-02343) was prepared and dispensed at 50 μL/well, and the plates were left to stand at room temperature for 10 minutes. Subsequently, absorbance was measured by a microplate reader (Bio-Rad Laboratories, Inc.). Setting the measurement value of the control group of each plate at 100%, the increase (%) in alkaline phosphatase activity in the test compound-addition group was calculated, which was assessed as the degree of osteoblast differentiation.
`NC(=O)c1ccc2cncc(N3CCC(OCCO[C@@H]4CCOC4)CC3)c2n1` [Example 3, 8-(4-{2-[(3R)-Tetrahydrofuran-3-yloxy]ethoxy}piperidin-1-yl)-1,6-naphthyridine-2-carboxamide]: the activity at 0.03 µg/mL was at least 200%.

Regarding `NC(=O)c1ccc2cncc(N3CCC(OCCO[C@H]4CCOC4)CC3)c2n1` [Example 4, 8-(4-{2-[(3S)-Tetrahydrofuran-3-yloxy]ethoxy}piperidin-1-yl)-1,6-naphthyridine-2-carboxamide], the activity at 0.03 µg/mL is at least 200%.

In the case of `COCCC1CCCN(c2cncc3ccc(C(N)=O)cc23)C1` (centres unmarked) [Example 41], the activity at 0.03 µg/mL is at least 200%.

On to `CC(C)OCCOC1CCN(c2cncc3ccc(C(N)=O)nc23)CC1` [Example 111], for which the activity at 0.03 µg/mL is at least 200%.

For the compound `COCC1CCN(c2cncc3ccc(C(N)=O)nc23)CC1` [Example 112], the activity at 0.03 µg/mL was at least 200%.

Regarding `NC(=O)c1ccc2cncc(N3CCN(c4ccccc4)CC3)c2n1` [Example 28], the activity at 0.03 µg/mL is at least 200%.

Regarding `CC(C)(O)C1CCN(c2cncc3ccc(C(N)=O)cc23)CC1` [Example 69], the activity at 0.03 µg/mL was at least 200%.

Regarding `CCN(C)C(=O)N1CCN(c2cncc3ccc(C(N)=O)nc23)CC1` [Example 115], the activity at 0.03 µg/mL is at least 200%.

For the compound `COCC1CN(c2cncc3ccc(C(N)=O)cc23)CCO1` (centres unmarked) [Example 105], the activity at 0.03 µg/mL was at least 200%.

On to `CC1CCN(c2cncc3ccc(C(N)=O)cc23)C1` (centres unmarked) [Example 72], for which the activity at 0.03 µg/mL was at least 200%.

`NC(=O)c1ccc2cncc(N3CCN(c4ccc(Cl)cc4)CC3)c2c1` [Example 49]: the activity at 0.03 µg/mL is at least 200%.

With `NC(=O)c1ccc2cncc(N3CCCCC3)c2n1` [Example 12, 8-Piperidin-1-yl-1,6-naphthyridine-2-carboxamide], the activity at 0.03 µg/mL was at least 200%.

On to `NC(=O)c1ccc2cncc(N3CCOCC3)c2c1` [Example 35], for which the activity at 0.03 µg/mL is at least 200%.

On to `NC(=O)c1ccc2cncc(N3CCC(COC4CCOCC4)CC3)c2c1` [Example 77], for which the activity at 0.03 µg/mL is at least 200%.

Turning to `CN(C)C(=O)CCC1CCN(c2cncc3ccc(C(N)=O)cc23)CC1` [Example 82], the activity at 0.03 µg/mL was at least 200%.

As to `CN(C)C(=O)N1CCN(c2cncc3ccc(C(N)=O)nc23)CC1` [Example 10, 8-[4-(Dimethylcarbamoyl)piperazin-1-yl]-1,6-naphthyridine-2-carboxamide], the activity at 0.03 µg/mL was at least 200%.

For the compound `Cc1ccn(-c2cncc3ccc(C(N)=O)cc23)c1` [Example 66], the activity at 0.03 µg/mL was at least 200%.

Regarding `COCC1CCCN(c2cncc3ccc(C(N)=O)nc23)C1` (centres unmarked) [Example 11, 8-[3-(Methoxymethyl)piperidin-1-yl]-1,6-naphthyridine-2-carboxamide], the activity at 0.03 µg/mL was at least 200%.

Regarding `CN(C)S(=O)(=O)CCOC1CCN(c2cncc3ccc(C(N)=O)cc23)CC1` [Example 106], the activity at 0.03 µg/mL was at least 200%.

`NC(=O)c1ccc2cncc(N3CCC(O)(c4ccc(Cl)cc4)CC3)c2c1` [Example 54]: the activity at 0.03 µg/mL was at least 200%.

In the case of `NC(=O)c1ccc2cncc(N3CCC(Oc4ccccc4)CC3)c2c1` [Example 64], the activity at 0.03 µg/mL was at least 200%.

On to `NC(=O)c1ccc2cncc(N3CCC(OCCOC4CCOC4)CC3)c2n1` (centres unmarked) [Example 117], for which the activity at 0.03 µg/mL was at least 200%.

In the case of `CN(C)C(=O)COC1CCN(c2cncc3ccc(C(N)=O)nc23)CC1` [Example 8, 8-{4-[2-(Dimethylamino)-2-oxoethoxy]piperidin-1-yl}-1,6-naphthyridine-2-carboxamide], the activity at 0.03 µg/mL is at least 200%.

On to `CC(=O)c1ccc(N2CCN(c3cncc4ccc(C(N)=O)cc34)CC2)cc1` [Example 50], for which the activity at 0.03 µg/mL was at least 200%.

Consider `CN(CCOC1CCN(c2cncc3ccc(C(N)=O)cc23)CC1)S(C)(=O)=O` [Example 102], for which the activity at 0.03 µg/mL was at least 200%.

As for `Cc1ccc(N2CCN(c3cncc4ccc(C(N)=O)cc34)CC2)cc1` [Example 61], the activity at 0.03 µg/mL is at least 200%.

For `NC(=O)c1ccc2cncc(N3CCC(OCCOCCO)CC3)c2c1` [Example 85], the activity at 0.03 µg/mL is at least 200%.

For `COC[C@@H]1CCCN(c2cncc3ccc(C(N)=O)cc23)C1` [Example 40], the activity at 0.03 µg/mL was at least 200%.

Turning to `NC(=O)c1ccc2cncc(N3CCN(c4ccccc4)CC3)c2c1` [Example 15, 4-(4-Phenylpiperazin-1-yl)isoquinoline-6-carboxamide], the activity at 0.03 µg/mL is at least 200%.

With `NC(=O)c1ccc2cncc(N3CCCC(CO)C3)c2c1` (centres unmarked) [Example 56], the activity at 0.03 µg/mL was at least 200%.

On to `CC(=O)N1CCN(c2cncc3ccc(C(N)=O)cc23)CC1` [Example 79], for which the activity at 0.03 µg/mL was at least 200%.

For `NC(=O)c1ccc2cncc(N3CCC(COC(F)F)CC3)c2c1` [Example 95], the activity at 0.03 µg/mL is at least 200%.

As to `NC(=O)c1ccc2cncc(N3CCC(C4CCOCC4)CC3)c2c1` [Example 65], the activity at 0.03 µg/mL is at least 200%.

Regarding `NC(=O)c1ccc2cncc(N3CCC(C(F)(F)F)CC3)c2c1` [Example 44], the activity at 0.03 µg/mL is at least 200%.

For `NC(=O)c1ccc2cncc(N3CCC(c4ccccc4)CC3)c2n1` [Example 83], the activity at 0.03 µg/mL was at least 200%.

`NC(=O)c1ccc2cncc(N3CCN(c4nccs4)CC3)c2c1` [Example 18, 4-[4-(1,3-Thiazol-2-yl)piperazin-1-yl]isoquinoline-6-carboxamide]: the activity at 0.03 µg/mL is at least 200%.

With `NC(=O)c1ccc2cncc(N3CCC(OC4CCCCO4)CC3)c2c1` (centres unmarked) [Example 75], the activity at 0.03 µg/mL was at least 200%.

On to `NC(=O)c1ccc2cncc(N3CC[C@@H]4CCCC[C@H]4C3)c2c1` [Example 67], for which the activity at 0.03 µg/mL was at least 200%.

Consider `NC(=O)c1ccc2cncc(N3CCC(F)CC3)c2c1` [Example 45], for which the activity at 0.03 µg/mL was at least 200%.

For the compound `NC(=O)c1ccc2cncc(N3CCC(OCCOC4CCCCO4)CC3)c2c1` (centres unmarked) [Example 19, 4-{4-[2-(Tetrahydro-2H-pyran-2-yloxy)ethoxy]piperidin-1-yl}isoquinoline-6-carboxamide], the activity at 0.03 µg/mL is at least 200%.

With `NC(=O)c1ccc2cncc(N3CCC(CO)CC3)c2c1` [Example 55], the activity at 0.03 µg/mL was at least 200%.

Regarding `CN(C)C(=O)COC1CCN(c2cncc3ccc(C(N)=O)cc23)CC1` [Example 94], the activity at 0.03 µg/mL was at least 200%.

Take `NC(=O)c1ccc2cncc(N3CCN(c4cccc(F)c4)CC3)c2c1` [Example 60]: the activity at 0.03 µg/mL is at least 200%.

As to `NC(=O)c1ccc2cncc(N3CCC(OCCOC4CCOCC4)CC3)c2n1` [Example 6, 8-{4-[2-(Tetrahydro-2H-pyran-4-yloxy)ethoxy]piperidin-1-yl}-1,6-naphthyridine-2-carboxamide], the activity at 0.03 µg/mL is at least 200%.

As for `N#Cc1ccc(N2CCN(c3cncc4ccc(C(N)=O)cc34)CC2)cc1` [Example 62], the activity at 0.03 µg/mL is at least 200%.
